Measured values taken from patent US6608103B2, “Inhibitor for neovasculation, cell multiplication, lumen formation and FGF” (Fuji Chemical Industry Co., Ltd., priority 2001, dated 2003).
“Also recorded” adds a separate entry of the source.

Assays:
Type in all cases: cell-based, bovine
[1] = test system: BAEC; experiment: Effects of tocotrienols on multiplication of BAEC, MTT assay; settings: for Absorbance: MTT; for inhibitory action against cell multiplication: Table 1
Protocol: Normal bovine aortic endothelial cells (BAEC) were manufactured by Cell Systems Co., and purchased through Dainippon Seiyaku Co., Ltd.
A cell suspension was prepared by adding the cells to MEM (Sigma Chemical Co.) containing 10 v/v (%) fetal bovine serum (FBS), 20 IU/ml penicillin and 20 IU/ml streptomycin (MEM+10% FBS) in a concentration of 1×10^5 cells/ml, and cultured in a 5% CO2 incubator at 37° C. by using a 60 mm dish coated with type I collagen with subculturing every 2 to 3 days.
Each of the above samples was added to MEM containing 2% (v/v) FBS, 20 IU/ml penicillin and 20 IU/ml streptomycin (MEM+2% FBS), and subjected to testing.
Effects of tocotrienols on the multiplication of BAEC were examined by using MTT assay.
(§1) Each one microplate was taken out after 0, 24, 48 or 96 hours from placing the culture medium containing a sample. In the case of the microplate taken out after 96 hours, the culture medium was once changed after 48 hours. 3 mg/ml MTT solution PBS (−) was put in each well in an amount of 50 μl/well, and incubated for 3 hours in a CO2 incubator. After filling each well with phosphate buffered saline (PBS(−)), liquid in each well was evacuated, and isopropyl alcohol containing 0.04 mol/l HCL was put in each well in an amount of 200 μl/well. The microplates were allowed to stand overnight in a dark place, and then, absorbance at 595 nm and 655 nm (dual) was measured by a microplate reader.
In the case of Control group A, no sample was added.

[2] = test system: BAEC; experiment: Inhibitory action against FGF activity, MTT assay on BAEC with FGF 20 ng/ml; design: key to Cell Multiplication: ↑: Accelerated; /: Tendency to increase; No change; ↓: Inhibited; ↓↓: Strongly inhibited; settings: for Absorbance: MTT; for Cell Multiplication: summary
Protocol: The fibroblast growth factor sample was prepared by dissolving a commercial FGF (Sigma Chemical Co.) in MEM (Sigma Chemical Co.)
as §1
In the case of Control group B, no sample was added.

[3] = test system: BAEC; experiment: Neovasculation / lumen formation of BAEC between two layers of type I collagen gel
Protocol: BAEC was cultured between two layers of type I collagen gel, and a lumen-like netting structure formed therebetween was evaluated.
(§2) Eight parts by volume of “Vitrogen Collagen” (Collagen Co.), 1 part by volume of 0.1 N NaOH and 1 part by volume of ×10 MEM (GIBCO BRL) were placed in a tube, and mixed quickly in an ice bath. The culture solution was removed by suction, and 0.5 ml/well of the above mixture containing collagen was pipetted into each well. The microplate was placed in a CO2 incubator for about 30 minutes to gelatinize it. 1.5 ml of a medium (MEM | 2% FBS) containing a sample was added, and continued to incubate while changing the medium every second day.
(§3) The variation of cells were observed by a microscope by taking a photograph, and lumen formation was evaluated by counting the number of branches of cells forming lumen.
The inhibition test against lumen formation was carried out in the same manner as Example 15, except that α-tocopherol was substituted for DL-α-tocotrienol.

[4] = test system: BAEC; experiment: Inhibition against lumen formation induced by FGF; design: key to Lumen Formation: ↑: Accelerated; /: Tendency to increase; No change; ↓: Inhibited; ↓↓: Strongly inhibited; settings: for Lumen Formation: summary
Protocol: as §2, §3
The test was carried out similar to Examples 12-14, wherein FGF was added together with each tocotrienol. In the case of Control group E, no sample was added. […]

[5] = test system: BAEC; experiment: Cell multiplication of BAEC, survival rate of cells using WST-1; settings: for Survival Rate of Cells (% of control): 24 hours, WST-1; for IC50: determined from the graph of FIG. 1 (abscissa μM), read-out: median growth inhibition concentration (IC50)
Protocol: Influence of tocotrienols on cell multiplication of BAEC was examined in various concentrations. The cell multiplication was evaluated by determining the survival rate of cells using WST-1, which makes it possible to conduct high sensitivity measurement, instead of conventional MTT.
As a blank, the culture medium alone was incubated without adding cells. […] The microplate was taken out after 24 hours from placing the culture medium containing a sample. 10 μl/well of WST-1 solution was added to each well, and incubated in a CO2 incubator. After 3 hours, absorbance at 450 nm and 655 nm (dual) of each well was measured by a microplate reader.
The samples employed were DL-α-tocotrienol, DL-γ-tocotrienol and DL-δ-tocotrienol. In the case of Control group I, no sample was added.
The survival rate of cells was determined by the following formula:
Survival Rate of Cells=(S−B)/(C−B)×100(%)
The results of Table 10 were made in a graph shown in FIG. 1, and median growth inhibition concentration (IC50) was determined from the graph. In the figure, the numbers on the ordinate indicate the survival rate of cells (% of control), and the numbers on the abscissa indicate concentration (μM). ● is DL-α-tocotrienol, ▪ is DL-β-tocotrienol, Δ is DL-γ-tocotrienol, and X is DL-δ-tocotrienol, respectively.

[6] = 0 hr, FGF 20 ng/ml + sample 10 μM
[7] = 24 hrs, FGF 20 ng/ml + sample 10 μM
[8] = 48 hrs, FGF 20 ng/ml + sample 10 μM
[9] = 96 hrs, FGF 20 ng/ml + sample 10 μM
[10] = FGF (20 ng/ml) + sample (10 μM)
[11] = FGF (20 ng/ml) + sample (100 μM)

Row | Structure (SMILES) | Absorbance ([1]; 0 hr, sample 10 μM) | Absorbance ([1]; 24 hrs, sample 10 μM) | Absorbance ([1]; 48 hrs, sample 10 μM) | Absorbance ([1]; 96 hrs, sample 10 μM) | Absorbance [2, 6] | Absorbance [2, 7] | Absorbance [2, 8] | Absorbance [2, 9] | Cell Multiplication [2, 10] | inhibition of lumen formation ([3]; 10 μM) | Number of Cells Forming Lumen/cm^2 ([3]; Table 4, 10 μM) | inhibition of lumen formation induced by FGF ([4]; 10 μM + FGF 20 ng/ml) | Number of Cells Forming Lumen/cm^2 ([4]; sample 10 μM + FGF 20 ng/ml) | Lumen Formation [4, 10] | IC50 [5] | inhibitory action against cell multiplication ([1]; 10 μM) | Survival Rate of Cells (% of control) ([5]; 2 μM) | Survival Rate of Cells (% of control) ([5]; 4 μM) | Survival Rate of Cells (% of control) ([5]; 6 μM) | Survival Rate of Cells (% of control) ([5]; 8 μM) | further results
1 | CC(C)=CCC/C(C)=C/CC/C(C)=C/CC[C@]1(C)CCc2c(C)c(O)c(C)c(C)c2O1 (racemic) [DL-α-Tocotrienol, α-tocotrienol] | 0.090 ± 0.003 | 0.141 ± 0.008 | 0.271 ± 0.010 | 0.382 ± 0.014 | 0.044 ± 0.002 | 0.096 ± 0.004 | 0.290 ± 0.010 | 0.328 ± 0.018 | ↑ | equivalent to the control group | 39.25 ± 1.84 /cm^2 | inhibited the lumen formation induced by FGF | 25.25 ± 1.55 /cm^2 | → | 38 µM |  |  |  |  |  | inhibition of lumen formation ([3]; 50 μM): completely inhibited formation; Number of Cells Forming Lumen/cm^2 ([3]; Table 4, 30 μM): 31.75 ± 1.25 /cm^2; Number of Cells Forming Lumen/cm^2 ([3]; Table 4, 50 μM): 0.00 ± 0.00 /cm^2; Number of Cells Forming Lumen/cm^2 ([3]; Table 4, 100 μM): 39.25 ± 2.17 /cm^2; Survival Rate of Cells (% of control) ([5]; 25 μM): 111.0 ± 6.8 % of control; Survival Rate of Cells (% of control) ([5]; 30 μM): 115.8 ± 9.2 % of control; Survival Rate of Cells (% of control) ([5]; 35 μM): 67.3 ± 11.6 % of control; Survival Rate of Cells (% of control) ([5]; 40 μM): 39.1 ± 12.7 % of control; Survival Rate of Cells (% of control) ([5]; 45 μM): 6.9 ± 5.9 % of control
2 | Cc1c(C)c2c(c(C)c1O)CC[C@@](C)(CCC[C@H](C)CCC[C@H](C)CCCC(C)C)O2 [α-Tocopherol, α-tocopherol, reference compound] |  |  |  |  |  |  |  |  |  |  |  |  |  |  |  |  |  |  |  |  | inhibitory action against cell multiplication ([1]; 100 μM): does not exhibit inhibitory action; Absorbance ([1]; 0 hr, sample 100 μM): 0.092 ± 0.003; Absorbance ([1]; 24 hrs, sample 100 μM): 0.140 ± 0.003; Absorbance ([1]; 48 hrs, sample 100 μM): 0.268 ± 0.004; Absorbance ([1]; 96 hrs, sample 100 μM): 0.520 ± 0.012; Absorbance ([2]; 0 hr, FGF 20 ng/ml + sample 100 μM): 0.045 ± 0.002; Absorbance ([2]; 24 hrs, FGF 20 ng/ml + sample 100 μM): 0.080 ± 0.004; Absorbance ([2]; 48 hrs, FGF 20 ng/ml + sample 100 μM): 0.242 ± 0.014; Absorbance ([2]; 96 hrs, FGF 20 ng/ml + sample 100 μM): 0.360 ± 0.020; Cell Multiplication [2, 11]: ↑; inhibition of lumen formation ([3]; 100 μM): did not inhibit lumen formation; inhibition of lumen formation induced by FGF ([4]; 100 μM + FGF 20 ng/ml): not found; Number of Cells Forming Lumen/cm^2 ([4]; sample 100 μM + FGF 20 ng/ml): 25.25 ± 2.10 /cm^2; Lumen Formation [4, 11]: →
3 | CC(C)=CCC/C(C)=C/CC/C(C)=C/CC[C@]1(C)CCc2cc(O)cc(C)c2O1 (racemic) [DL-δ-Tocotrienol, δ-tocotrienol] | 0.103 ± 0.001 | 0.004 ± 0.000 | 0.003 ± 0.000 | 0.002 ± 0.000 | 0.040 ± 0.002 | 0.003 ± 0.000 | 0.003 ± 0.000 | 0.003 ± 0.000 | ↓↓ | inhibited lumen formation completely | 0.00 ± 0.00 /cm^2 | inhibited the lumen formation completely; also recorded: exhibit inhibitory action against lumen formation | 0.00 ± 0.00 /cm^2 | ↓↓ | 5.5 µM | remarkable inhibitory action | 93.0 ± 6.8 % of control | 109.4 ± 8.0 % of control | 0.9 ± 1.3 % of control | 5.8 ± 4.5 % of control | Survival Rate of Cells (% of control) ([5]; 10 μM): 0.4 ± 0.9 % of control
4 | CC(C)=CCC/C(C)=C/CC/C(C)=C/CC[C@]1(C)CCc2c(C)c(O)cc(C)c2O1 (racemic) [DL-β-Tocotrienol, β-tocotrienol] | 0.084 ± 0.002 | 0.029 ± 0.004 | 0.39 ± 0.007 | 0.011 ± 0.002 | 0.042 ± 0.002 | 0.036 ± 0.003 | 0.055 ± 0.005 | 0.039 ± 0.004 | ↓↓ |  |  | inhibited the lumen formation completely; also recorded: exhibit inhibitory action against lumen formation | 0.00 ± 0.00 /cm^2 | ↓↓ | 6.5 µM | remarkable inhibitory action | 89.4 ± 5.1 % of control | 97.8 ± 7.9 % of control | 57.1 ± 5.9 % of control | 5.6 ± 5.4 % of control | Survival Rate of Cells (% of control) ([5]; 10 μM): 0.0 ± 0.0 % of control
